According to ChEMBL document CHEMBL4422675, “Pyrrolinone derivatives as a new class of P2X3 receptor antagonists Part 2: Discovery of orally bioavailable compounds” (Bioorg Med Chem Lett, 2019):

Tests used:
[1] = Half life in rat at 0.5 mg/kg, iv or 1 mg/kg, po; format: ADME, organism-based; settings: in vivo
[2] = Oral bioavailability in rat at 1 mg/kg; format: ADME, organism-based; settings: in vivo
in vivo = settings: rat, iv, 0.5 mg/kg
[3] = AUC in rat at 3 mg/kg, po; format: ADME, organism-based; settings: in vivo
[4] = Oral bioavailability in rat at 3 mg/kg; format: ADME, organism-based; settings: in vivo
[5] = Cmax in rat at 3 mg/kg, po; format: ADME, organism-based; set-up: dose 3 mg/kg, route oral; settings: in vivo
[6] = Total clearance in rat at 1 mg/kg, iv; format: ADME, organism-based; settings: in vivo
[7] = Half life in rat at 1 mg/kg, iv; format: ADME, organism-based; settings: in vivo

| SMILES | half-life [1] [h] | bioavailability [2] [%] | clearance (in vivo) [mL/min/kg] | also measured |
| --- | --- | --- | --- | --- |
| CC(C)C(=O)C1=C(O)C(=O)N(c2ccc(-c3ccsc3)cc2)C1c1ccccc1OCC[S+](C)[O-] (stereo not given) | 1.1 | 0.7 | 23.2 |  |
| CCC(CC)C1C(C(=O)c2ccc(OC)cc2)=C(O)C(=O)N1c1ccc(-c2ccon2)cc1 (stereo not given) | 4.2 | 18.9 | 5.1 |  |
| CC(C)(C)C(=O)C1=C(O)C(=O)N(c2ccc(-c3ccsc3)cc2)C1c1ccccc1OCCO (stereo not given) | 3.3 | 39.5 |  |  |
| COc1ccccc1[C@@H]1C(C(=O)C(C)C)=C([O-])C(=O)N1c1ccc(-c2ccsc2)cc1.[Na+] |  |  |  | AUC [3]: 48400 ng·h/mL; bioavailability [4]: 37.4%; Cmax [5]: 4230 ng/mL; clearance [6]: 0.39 mL/min/kg; half-life [7]: 3.2 h |
| CC(C)(C)C(=O)C1=C(O)C(=O)N(c2ccc(-c3cccs3)cc2)C1c1ccccc1OCCO (stereo not given) | 2 | 65.2 | 1.3 |  |
| COc1ccccc1C1C(C(=O)C(C)C)=C(O)C(=O)N1c1ccc(-c2ccsc2)cc1 (stereo not given) | 6.1 | 20 | 0.3 |  |
| CN(C)CCOc1ccccc1C1C(C(=O)C(C)(C)C)=C(O)C(=O)N1c1ccc(-c2ccsc2)cc1 (stereo not given) | 1.5 | 15.5 | 7.3 |  |
| COc1ccc(C(=O)C2=C(O)C(=O)N(c3ccc(-c4ccon4)cc3)C2C2CCCCC2)cn1 (stereo not given) | 1.4 | 28.1 | 4.6 |  |
| O=C(O)c1ccc(C(=O)C2=C(O)C(=O)N(c3ccc(-c4ccon4)cc3)C2C2CCCCC2)cc1 (stereo not given) | 1.9 | 3.7 |  |  |
| CNC(=O)c1ccc(C(=O)C2=C(O)C(=O)N(c3ccc(-c4ccon4)cc3)C2C2CCCCC2)cc1 (stereo not given) | 0.7 | 1.6 |  |  |
| COc1ccc(C(=O)C2=C(O)C(=O)N(c3ccc(-c4ccon4)cc3)C2c2ccccc2OC)cc1 (stereo not given) | 0.5 | 19.9 | 8.8 |  |
| COc1ccc(C(=O)C2=C(O)C(=O)N(c3ccc(-c4ccon4)cc3)C2c2ccccc2OCCO)cc1 (stereo not given) | 0.5 | 9 |  |  |

More lines, main results first:

| half-life [1] [h] | bioavailability [2] [%] | clearance (in vivo) [mL/min/kg] | SMILES | also measured |
| --- | --- | --- | --- | --- |
| 1.4 | 23.2 | 13.7 | C[S+]([O-])CCOc1ccccc1C1C(C(=O)C(C)(C)C)=C(O)C(=O)N1c1ccc(-c2ccsc2)cc1 (stereo not given) |  |
| 1 | 40.8 |  | CC(C)C(=O)C1=C(O)C(=O)N(c2ccc(-c3ccsc3)cc2)C1c1ccccc1OCCO (stereo not given) |  |
| 2.6 | 77.9 | 1.3 | COc1ccccc1C1C(C(=O)C(C)(C)C)=C(O)C(=O)N1c1ccc(-c2ccon2)cc1 (stereo not given) |  |
| 1.4 | 6.7 | 3.8 | O=C(C1=C(O)C(=O)N(c2ccc(-c3ccon3)cc2)C1C1CCCCC1)c1ccc(CO)cc1 (stereo not given) |  |
| 2.1 | 49.9 | 2.9 | CC(C)(C)C(=O)C1=C(O)C(=O)N(c2ccc(-c3ccon3)cc2)C1c1ccccc1OCCO (stereo not given) |  |
| 4.2 | 5.2 |  | CC(C)(C)C(=O)C1=C(O)C(=O)N(c2ccc(-c3ccsc3)cc2)C1c1ccccc1OCC(=O)O (stereo not given) |  |
